From patent US20070037752A1, “Novel alanyl-amino peptidase inhibitors for functionally influencing different cells and treating immunological, inflammatory, neuronal, and other diseases” (priority 2003, published 2007)
pIC50: −log10 of the molar value. Like-named read-outs stand apart in the source and are kept apart here. One block for each compound: values may come before it.

Target: alanyl aminopeptidases (APN) (Homo sapiens, UniProt P15144)
Experiment: Inhibition of alanyl aminopeptidase enzymatic activity, fluorogenic substrate (Ala)2-rhodamine 110
Type: biochemical
Experimental: The inhibition characteristics measured are referred to as IC-50 values or ID50 values (the latter marked with “*”) for said enzyme. The enzymatic activity was determined by means of the fluorogenic substrate/product (Ala)2-rhodamine 110.

[1] = Table 3, unstarred values, read-out: IC50APN
[2] = Table 9, unstarred values, read-out: IC50APN
[3] = Table 4, unstarred values, read-out: IC50APN
[4] = Table 3, starred values = ID50, read-out: ID50 APN (values marked with *)
[5] = Table 8, unstarred values, read-out: IC50APN

Chain of alanyl aminopeptidases (APN) (P15144 whole entry, species assumed): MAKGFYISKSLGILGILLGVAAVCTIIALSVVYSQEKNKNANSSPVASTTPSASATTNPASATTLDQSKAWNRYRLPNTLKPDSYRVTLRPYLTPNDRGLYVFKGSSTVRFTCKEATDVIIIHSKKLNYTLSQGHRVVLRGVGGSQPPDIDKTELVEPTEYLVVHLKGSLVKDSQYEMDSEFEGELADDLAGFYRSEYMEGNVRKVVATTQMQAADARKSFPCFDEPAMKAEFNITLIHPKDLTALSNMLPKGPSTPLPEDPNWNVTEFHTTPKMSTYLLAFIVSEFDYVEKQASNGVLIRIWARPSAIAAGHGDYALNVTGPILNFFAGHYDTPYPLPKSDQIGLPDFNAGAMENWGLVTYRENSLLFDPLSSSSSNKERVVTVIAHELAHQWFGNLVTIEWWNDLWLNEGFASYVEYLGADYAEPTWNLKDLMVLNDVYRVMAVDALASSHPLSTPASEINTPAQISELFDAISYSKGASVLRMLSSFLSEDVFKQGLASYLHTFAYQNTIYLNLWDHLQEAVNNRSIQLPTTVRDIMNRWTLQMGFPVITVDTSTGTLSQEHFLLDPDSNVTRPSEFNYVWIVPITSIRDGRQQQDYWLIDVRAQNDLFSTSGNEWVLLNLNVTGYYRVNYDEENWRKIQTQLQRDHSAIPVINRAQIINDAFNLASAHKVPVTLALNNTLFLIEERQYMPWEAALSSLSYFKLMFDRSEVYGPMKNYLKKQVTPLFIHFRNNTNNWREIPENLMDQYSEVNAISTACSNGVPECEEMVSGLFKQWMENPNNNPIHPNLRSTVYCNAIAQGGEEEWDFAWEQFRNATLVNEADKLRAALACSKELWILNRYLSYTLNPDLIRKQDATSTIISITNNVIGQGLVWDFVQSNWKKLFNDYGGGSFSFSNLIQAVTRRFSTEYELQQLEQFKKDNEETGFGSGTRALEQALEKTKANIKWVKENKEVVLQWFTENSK

- pIC50 (Table 13, read-out: IC50APN): 4.47
SMILES: Cc1ccccc1NC(=O)C1C(c2cccs2)C(C#N)=C(SCC(=O)Nc2ccc(Br)cc2)NC1(C)O (stereo not drawn) [A13.019]

- pIC50 [2]: 4.65
SMILES: CCOC(=O)c1c(C)oc2c1c1c(c3ccccc32)OCN(C2CCS(=O)(=O)C2)C1 (stereo not drawn) [A9.057]

- pIC50 (Table 9, starred values = ID50, read-out: ID50 APN (values marked with *)): 4.02
SMILES: O=C(OCCN1CCCCC1)C1c2ccccc2Oc2ccccc21 [A9.117]

- pIC50 (Table 12, read-out: IC50APN): 5.57
SMILES: CCOC(=O)c1ccc(-c2ccc(/C=C3\C(=O)N(CCO)C(=O)C(C#N)=C3C)o2)cc1 [A12.004]

- pIC50 [2]: 4.60
SMILES: Cn1nc(-c2cccs2)nc2c(=O)n(C)c(=O)nc1-2 [A9.059]

- pIC50 (Table 12, read-out: IC50APN): 4.64
SMILES: CN(C)CCCN1CCN(c2nc(N(C)CC(=O)O)c3ncn(Cc4ccc(C(F)(F)F)cc4)c3n2)CC1 [A12.042]

- pIC50 [2]: 4.28
SMILES: CCOC(=O)c1cc(-c2ccc(/C=C3/C(=O)NC(=O)C(C#N)=C3C)o2)ccc1Cl [A9.099]

- pIC50 [2]: 5.21
SMILES: CC1CCN(C(=O)/C(=C\c2ccco2)NC(=O)c2ccc(Cl)cc2)CC1 [A9.009]

- pIC50 (Table 11, read-out: IC50APN): 3.65
SMILES: COc1cccc(C(=O)NCC(=O)N/N=C/c2ccc([N+](=O)[O-])o2)c1 [A11.035]

- pIC50 [2]: 4.85
SMILES: O=C(CCCCCN1C(=O)c2cccc3cccc(c23)C1=O)NO [A9.032]

- pIC50 (Table 11, read-out: IC50APN): 4.27
SMILES: O=C(N/N=C/c1cc(Br)ccc1OC(=O)c1ccc([N+](=O)[O-])cc1)/C(=C\c1ccc2c(c1)OCO2)NC(=O)c1ccccc1 [A11.031]

- pIC50 [2]: 4.69
SMILES: Cc1cc(C)n(-c2nnc(N)nn2)n1 [A9.048]

- pIC50 (Table 13, read-out: IC50APN): 4.55
SMILES: N#C/C(=C\c1ccc(N2Cc3ccccc3C2)cc1)C(=O)NCC1CCCO1 (stereo not drawn) [A13.013]

- pIC50 [2]: 4.67
SMILES: CC1=C(C#N)C(O)=NC(=O)/C1=C/c1ccc(-c2ccc(Cl)c(C(=O)OC(C)C)c2)o1 [A9.053]

- pIC50 [5]: 4.58
SMILES: O=C1C(Cc2ccccc2)NC(=S)N1c1ccccc1 (stereo not drawn) [A8.020]

Second part, the compound before the results:

SMILES: CC(C(=O)N/N=C/c1ccco1)n1nnc2ccccc21 (stereo not drawn) [A4.176]
- pIC50 (Table 4, starred values = ID50, read-out: ID50 APN (values marked with *)): 3.83

SMILES: O=C(CCC(=O)Nc1cccc(Cl)c1)N/N=C/c1ccco1 [A3.206]
- pIC50 [1]: 4.47

SMILES: Cc1ccc(/C=N/NC(=O)c2nnn(-c3nonc3N)c2CN2CCOCC2)o1 [A4.084]
- pIC50 [3]: 4.57

SMILES: O=C(CNC(=O)c1ccccc1O)N/N=C/c1ccco1 [A3.318]
- pIC50 [4]: 4.01

SMILES: Cc1c(Cl)cccc1NC(=O)C(=O)N/N=C/c1c(OCc2ccccc2)ccc2ccccc12 [A4.006]
- pIC50 [3]: 5.18

SMILES: O=C(N/N=C/c1ccco1)c1ccccc1 [A4.120]
- pIC50 [3]: 4.42

SMILES: CC1=C(C#N)C(=O)N(CC(C)O)C(=O)/C1=C/c1ccc(-c2ccc(Br)cc2)o1 (stereo not drawn) [A3.252]
- pIC50 [4]: 4.33

SMILES: CC(C)Oc1ccc(Br)cc1C(=O)N/N=C/c1ccco1 [A3.248]
- pIC50 [1]: 4.33

SMILES: O=C(CN1C(=O)C2C3C=CC(C3)C2C1=O)Nc1ccc(C(F)(F)F)cc1 (stereo not drawn) [A3.337]
- pIC50 [4]: 3.65

SMILES: CCc1cccc(CC)c1NC(=S)N/N=C1\C(=O)N(CN2CC(C)CC(C)C2)c2ccccc21 (stereo not drawn) [A7.002]
- pIC50 (Table 7, read-out: IC50APN): 5.17

SMILES: COc1cc(Br)ccc1OCC(=O)N/N=C(C)/C=C/c1ccco1 [A4.116]
- pIC50 [3]: 4.44

SMILES: O=C(COc1ccc2ccccc2c1Br)N/N=C/c1ccco1 [A3.253]
- pIC50 [1]: 4.33

SMILES: CCOC(=O)c1c(-c2ccccc2)c[nH]c1N [A3.336]
- pIC50 [4]: 3.77

SMILES: O=C(OCC1CCCO1)c1cc([N+](=O)[O-])cc([N+](=O)[O-])c1 (stereo not drawn) [A3.231]
- pIC50 [1]: 4.41

SMILES: COc1cc(C)[n+](OC(=O)N(C)C)c(C)c1 [A8.030]
- pIC50 [5]: 4.37

SMILES: Cc1ccc(/C=C(\NC(=O)c2ccccc2)C(=O)NCCN2CCOCC2)o1 [A3.273]
- pIC50 [4]: 4.26

SMILES: COc1ccc(/C=N/NC(=O)C2=C(C)Nc3ccccc3S2)cc1Cn1nc(C)c(Br)c1C [A4.002]
- pIC50 [3]: 5.32

SMILES: Cc1ccc(/C=N\NC(=O)Cc2cccs2)o1 [A3.265]
- pIC50 [1]: 4.29

SMILES: COc1ccc(C(=O)/C=C/c2ccc(-c3ccccc3)o2)cc1 [A3.236]
- pIC50 [1]: 4.39

SMILES: O=C1C(=Cc2ccc([N+](=O)[O-])o2)C(=O)c2ccccc21 [A3.295]
- pIC50 [1]: 4.17

SMILES: O=C(CCCCCN1C(=O)c2cccc3cccc(c23)C1=O)NO [A1.009]
- pIC50 (Table 1, unstarred values, read-out: IC50APN): 4.85

SMILES: COc1ccc(-c2nc(C)sc2CC(=O)O)cc1 [A3.111]
- pIC50 [1]: 4.68

SMILES: O=C(O)CC1S/C(=N/N=C/c2ccco2)NC1=O (stereo not drawn) [A3.254]
- pIC50 [4]: 4.32

SMILES: O=C(CNC(=O)c1ccccc1Br)N/N=C/c1ccoc1 [A3.192]
- pIC50 [1]: 4.50

SMILES: CC(/C=C/c1ccco1)=N\NC(=O)COc1ccc(C(C)(C)C)cc1 [A4.145]
- pIC50 [3]: 4.27

SMILES: O=C(C[N+](=O)[O-])C1=CC2OC=CC2N1 (stereo not drawn) [A3.258]
- pIC50 [1]: 4.31

SMILES: CC(/C=N/NC(=O)C(O)c1ccccc1)=C\c1ccco1 (stereo not drawn) [A3.219]
- pIC50 [1]: 4.44

SMILES: Cc1cc(C(=O)N/N=C/c2ccc(C)o2)[nH]n1 [A3.191]
- pIC50 [1]: 4.50

SMILES: COc1cc(Br)ccc1OCC(=O)N/N=C/c1cc(Br)c(O)c(O)c1Br [A4.056]
- pIC50 [3]: 4.69

SMILES: CCOC(=O)c1cc(-c2ccc(/C=C3\C(=O)N(CCCO)C(=O)C(C#N)=C3C)o2)ccc1Cl [A3.233]
- pIC50 [1]: 4.39
